# Calls of active or inactive are those of the source. The rule behind the calls is not given here.
# Assays:
# Type in all cases: cell-based
# [1] = target: T1, Protein cereblon/Stimulator of interferon genes protein (Homo sapiens) (UniProt Q96SW2+Q86WV6); assay: PROTAC activity at CRBN/STING in human THP-1 cells assessed as induction of STING degradation at 3 to 30 uM incubated for 6 hrs by Western blot analysis; details: dose 3-30 µM
# [2] = target: T1, Protein cereblon/Stimulator of interferon genes protein (Homo sapiens); assay: PROTAC activity at CRBN/STING in human THP-1 cells assessed as induction of STING degradation incubated for 24 to 48 hrs by Western blot analysis; details: dose 3-30 µM, time 24-48 hrs
# [3] = target: Stimulator of interferon genes protein (Homo sapiens) (UniProt Q86WV6); assay: Inhibtion of STING in 293-Dual hSTING-R232 cells co-expressing interferon beta luciferase reporter assessed as inhibition of interferon response incubated for 16 hrs in presence of cGAMP by luminescence based luciferase gene reporter assay; details: dose 1-30 µM
# [4] = target: T2, E3 ubiquitin-protein ligase RNF126/Stimulator of interferon genes protein (Homo sapiens) (UniProt Q86WV6+Q9BV68); assay: PROTAC activity at RNF126/STING in human THP-1 cells assessed as induction of STING degradation at 3 to 30 uM incubated for 6 to 48 hrs by Western blot analysis; details: dose 3-30 µM, time 6-48 hrs
# [5] = target: T2, E3 ubiquitin-protein ligase RNF126/Stimulator of interferon genes protein (Homo sapiens); assay: PROTAC activity at RNF126/STING in human THP-1 cells assessed as induction of STING degradation at 3 uM incubated for 18 hrs in the presence of MLN7243 by Western blot analysis
# [6] = target: T2, E3 ubiquitin-protein ligase RNF126/Stimulator of interferon genes protein (Homo sapiens); assay: PROTAC activity at RNF126/STING in human THP-1 cells assessed as induction of STING degradation at 10 uM incubated for 24 hrs by Western blot analysis
# [7] = target: T2, E3 ubiquitin-protein ligase RNF126/Stimulator of interferon genes protein (Homo sapiens); assay: PROTAC activity at RNF126/STING in human THP-1 cells assessed as induction of STING degradation at 3 uM incubated for 18 hrs in the presence of MG132 by Western blot analysis
# [8] = target: T2, E3 ubiquitin-protein ligase RNF126/Stimulator of interferon genes protein (Homo sapiens); assay: PROTAC activity at RNF126/STING in human THP-1 cells assessed as induction of STING degradation upto 30 uM incubated for 24 hrs by Western blot analysis
# T2 sequence (Q86WV6 whole entry, looked up): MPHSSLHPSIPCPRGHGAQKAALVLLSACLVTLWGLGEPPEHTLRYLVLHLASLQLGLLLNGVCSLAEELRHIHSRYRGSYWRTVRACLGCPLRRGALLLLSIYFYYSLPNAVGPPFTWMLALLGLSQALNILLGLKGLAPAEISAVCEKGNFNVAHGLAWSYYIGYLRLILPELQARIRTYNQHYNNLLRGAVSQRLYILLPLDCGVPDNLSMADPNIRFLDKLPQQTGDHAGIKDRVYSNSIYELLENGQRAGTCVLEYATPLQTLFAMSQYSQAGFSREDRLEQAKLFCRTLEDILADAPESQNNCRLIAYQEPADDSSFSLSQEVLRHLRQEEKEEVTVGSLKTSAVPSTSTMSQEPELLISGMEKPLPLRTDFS
# T2 sequence (Q9BV68 whole entry, looked up): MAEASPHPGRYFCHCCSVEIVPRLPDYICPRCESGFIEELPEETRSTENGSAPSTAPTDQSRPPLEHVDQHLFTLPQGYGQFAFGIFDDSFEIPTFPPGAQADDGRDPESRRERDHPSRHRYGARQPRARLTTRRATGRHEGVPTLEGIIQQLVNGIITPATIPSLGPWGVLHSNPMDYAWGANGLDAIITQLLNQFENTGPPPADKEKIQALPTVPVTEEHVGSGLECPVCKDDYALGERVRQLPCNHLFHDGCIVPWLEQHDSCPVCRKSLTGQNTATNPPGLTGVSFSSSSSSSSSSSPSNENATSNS
# T1 sequence (Q86WV6 whole entry, looked up): as the sequence (Q86WV6 whole entry, looked up) above
# T1 sequence (Q96SW2 whole entry, looked up): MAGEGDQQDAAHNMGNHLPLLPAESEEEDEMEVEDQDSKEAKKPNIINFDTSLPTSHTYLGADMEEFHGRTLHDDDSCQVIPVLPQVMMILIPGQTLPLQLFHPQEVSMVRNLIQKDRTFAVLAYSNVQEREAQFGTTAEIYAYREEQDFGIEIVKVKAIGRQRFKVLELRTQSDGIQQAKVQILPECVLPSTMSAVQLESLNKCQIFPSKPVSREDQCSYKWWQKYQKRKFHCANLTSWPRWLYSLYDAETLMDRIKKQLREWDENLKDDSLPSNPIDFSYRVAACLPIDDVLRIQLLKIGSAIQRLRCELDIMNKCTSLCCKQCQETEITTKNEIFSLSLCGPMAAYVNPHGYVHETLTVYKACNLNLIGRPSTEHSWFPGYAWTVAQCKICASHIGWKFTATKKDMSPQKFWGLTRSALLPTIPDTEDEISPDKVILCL
# Sequence of Stimulator of interferon genes protein (Homo sapiens) (Q86WV6 whole entry): as the sequence (Q86WV6 whole entry, looked up) above
smiles,measurement,setting,value
O=C(/C=C/C(=O)Nc1ccc(NC(=O)c2ccc([N+](=O)[O-])o2)cc1)NCCCCCCNc1cccc2c1C(=O)N(C1CCC(=O)NC1=O)C2=O (stereo not drawn),Activity,[1],inactive
same,Activity,[2],Dose-Dependent Effect
COc1ccc(C(=O)/C=C/C(=O)N2CCN(c3ccc(NC(=O)c4ccc([N+](=O)[O-])o4)cc3)CC2)cc1,inhibition,[3],Dose-Dependent Effect
same,Activity,[4],Active
same,Activity,[5],inactive
same,Activity,[6],Active
same,Activity,[7],inactive
COc1ccc(C(=O)/C=C/C(=O)Nc2ccc(NC(=O)c3ccc([N+](=O)[O-])o3)cc2)cc1,Activity,[8],Active

# Reference: ChEMBL document CHEMBL5579807, “Development of STING degrader with double covalent ligands” (Bioorg Med Chem Lett, 2024)
